Results from article PMC3961306, “Comparison of the Cancer Gene Targeting and Biochemical Selectivities of All Targeted Kinase Inhibitors Approved for Clinical Use” (PLoS ONE, 2014).

Assays:
Experiment in all cases: Kinase profiling in a biochemical assay panel (mobility shift assays and ELISA), %-inhibition at 1 μM; selectivity entropy
[1] = biological target: panel of more than 300 wild-type and mutant kinases (313 kinase panel) (Homo sapiens, UniProt Q9H1R3)
[2] = biological target: T1, panel of more than 300 wild-type and mutant kinases (313 kinase panel) (Homo sapiens, UniProt Q16832)
T1 sequence (Q16832 22-855): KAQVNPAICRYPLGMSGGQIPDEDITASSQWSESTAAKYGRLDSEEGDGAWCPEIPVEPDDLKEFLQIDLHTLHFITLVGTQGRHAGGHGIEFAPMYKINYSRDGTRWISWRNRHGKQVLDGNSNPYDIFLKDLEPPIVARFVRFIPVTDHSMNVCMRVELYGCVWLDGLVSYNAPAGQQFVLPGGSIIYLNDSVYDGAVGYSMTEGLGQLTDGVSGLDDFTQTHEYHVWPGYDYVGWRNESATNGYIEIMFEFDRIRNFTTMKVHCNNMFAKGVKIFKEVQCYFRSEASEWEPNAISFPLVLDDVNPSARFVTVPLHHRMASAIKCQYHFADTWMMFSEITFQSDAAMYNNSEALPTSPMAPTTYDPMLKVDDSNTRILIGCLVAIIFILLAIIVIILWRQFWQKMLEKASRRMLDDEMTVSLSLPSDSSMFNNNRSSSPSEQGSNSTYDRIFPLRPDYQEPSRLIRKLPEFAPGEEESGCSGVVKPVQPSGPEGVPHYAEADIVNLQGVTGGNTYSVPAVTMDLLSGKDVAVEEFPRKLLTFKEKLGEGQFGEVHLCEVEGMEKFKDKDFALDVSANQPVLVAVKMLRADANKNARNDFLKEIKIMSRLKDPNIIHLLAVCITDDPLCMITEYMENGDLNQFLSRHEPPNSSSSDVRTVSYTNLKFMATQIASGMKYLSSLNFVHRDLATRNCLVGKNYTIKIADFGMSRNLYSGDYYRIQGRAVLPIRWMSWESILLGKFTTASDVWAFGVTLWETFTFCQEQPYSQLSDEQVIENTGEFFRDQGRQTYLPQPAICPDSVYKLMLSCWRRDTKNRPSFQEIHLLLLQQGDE

[3] = biological target: panel of more than 300 wild-type and mutant kinases (313 kinase panel) (Homo sapiens, UniProt P53667)
[4] = biological target: panel of more than 300 wild-type and mutant kinases (313 kinase panel) (Homo sapiens, UniProt Q15418)
[5] = biological target: panel of more than 300 wild-type and mutant kinases (313 kinase panel) (Homo sapiens, UniProt Q86Z02)
[6] = biological target: panel of more than 300 wild-type and mutant kinases (313 kinase panel) (Homo sapiens, UniProt Q02779)
[7] = biological target: panel of more than 300 wild-type and mutant kinases (313 kinase panel) (Homo sapiens, UniProt Q16816)
[8] = biological target: T2, panel of more than 300 wild-type and mutant kinases (313 kinase panel) (Homo sapiens, UniProt P54760)
T2 sequence (P54760 16-987): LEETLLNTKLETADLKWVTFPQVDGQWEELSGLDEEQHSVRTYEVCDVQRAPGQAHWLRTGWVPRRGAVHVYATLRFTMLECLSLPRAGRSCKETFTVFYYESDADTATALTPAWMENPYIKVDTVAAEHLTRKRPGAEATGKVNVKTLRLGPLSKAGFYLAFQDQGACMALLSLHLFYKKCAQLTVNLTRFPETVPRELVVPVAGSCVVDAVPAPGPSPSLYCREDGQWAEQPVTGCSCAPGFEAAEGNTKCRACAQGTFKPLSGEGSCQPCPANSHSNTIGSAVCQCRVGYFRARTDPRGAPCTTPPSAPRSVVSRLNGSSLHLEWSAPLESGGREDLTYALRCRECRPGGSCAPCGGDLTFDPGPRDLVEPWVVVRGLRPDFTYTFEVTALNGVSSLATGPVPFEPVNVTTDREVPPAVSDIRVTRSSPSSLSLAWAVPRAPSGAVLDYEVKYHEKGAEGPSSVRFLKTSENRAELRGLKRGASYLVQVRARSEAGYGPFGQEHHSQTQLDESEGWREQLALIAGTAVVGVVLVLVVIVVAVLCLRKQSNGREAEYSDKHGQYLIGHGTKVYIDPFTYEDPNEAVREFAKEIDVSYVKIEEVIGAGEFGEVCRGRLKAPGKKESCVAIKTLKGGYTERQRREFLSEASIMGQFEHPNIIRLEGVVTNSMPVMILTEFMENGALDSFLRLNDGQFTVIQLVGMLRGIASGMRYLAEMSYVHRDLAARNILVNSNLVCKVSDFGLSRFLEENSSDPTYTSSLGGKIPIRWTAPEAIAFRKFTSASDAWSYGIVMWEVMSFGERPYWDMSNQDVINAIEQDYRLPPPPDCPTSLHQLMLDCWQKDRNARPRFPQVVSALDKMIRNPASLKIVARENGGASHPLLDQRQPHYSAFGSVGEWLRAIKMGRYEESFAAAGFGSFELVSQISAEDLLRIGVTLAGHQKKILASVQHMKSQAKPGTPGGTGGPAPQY

Chain of panel of more than 300 wild-type and mutant kinases (313 kinase panel) (Homo sapiens, UniProt Q16816) (Q16816 whole entry, change not shown): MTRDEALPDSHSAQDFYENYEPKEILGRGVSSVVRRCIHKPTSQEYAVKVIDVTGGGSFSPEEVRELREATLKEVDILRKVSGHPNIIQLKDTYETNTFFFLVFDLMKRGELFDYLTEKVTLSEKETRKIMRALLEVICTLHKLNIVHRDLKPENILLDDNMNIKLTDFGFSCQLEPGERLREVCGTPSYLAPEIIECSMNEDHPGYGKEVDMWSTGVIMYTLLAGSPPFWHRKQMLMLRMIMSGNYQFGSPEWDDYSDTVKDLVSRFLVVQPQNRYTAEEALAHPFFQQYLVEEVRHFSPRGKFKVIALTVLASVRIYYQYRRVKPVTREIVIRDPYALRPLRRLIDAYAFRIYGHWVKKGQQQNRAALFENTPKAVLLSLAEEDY
Chain of panel of more than 300 wild-type and mutant kinases (313 kinase panel) (Homo sapiens, UniProt Q02779) (Q02779 whole entry, change not shown): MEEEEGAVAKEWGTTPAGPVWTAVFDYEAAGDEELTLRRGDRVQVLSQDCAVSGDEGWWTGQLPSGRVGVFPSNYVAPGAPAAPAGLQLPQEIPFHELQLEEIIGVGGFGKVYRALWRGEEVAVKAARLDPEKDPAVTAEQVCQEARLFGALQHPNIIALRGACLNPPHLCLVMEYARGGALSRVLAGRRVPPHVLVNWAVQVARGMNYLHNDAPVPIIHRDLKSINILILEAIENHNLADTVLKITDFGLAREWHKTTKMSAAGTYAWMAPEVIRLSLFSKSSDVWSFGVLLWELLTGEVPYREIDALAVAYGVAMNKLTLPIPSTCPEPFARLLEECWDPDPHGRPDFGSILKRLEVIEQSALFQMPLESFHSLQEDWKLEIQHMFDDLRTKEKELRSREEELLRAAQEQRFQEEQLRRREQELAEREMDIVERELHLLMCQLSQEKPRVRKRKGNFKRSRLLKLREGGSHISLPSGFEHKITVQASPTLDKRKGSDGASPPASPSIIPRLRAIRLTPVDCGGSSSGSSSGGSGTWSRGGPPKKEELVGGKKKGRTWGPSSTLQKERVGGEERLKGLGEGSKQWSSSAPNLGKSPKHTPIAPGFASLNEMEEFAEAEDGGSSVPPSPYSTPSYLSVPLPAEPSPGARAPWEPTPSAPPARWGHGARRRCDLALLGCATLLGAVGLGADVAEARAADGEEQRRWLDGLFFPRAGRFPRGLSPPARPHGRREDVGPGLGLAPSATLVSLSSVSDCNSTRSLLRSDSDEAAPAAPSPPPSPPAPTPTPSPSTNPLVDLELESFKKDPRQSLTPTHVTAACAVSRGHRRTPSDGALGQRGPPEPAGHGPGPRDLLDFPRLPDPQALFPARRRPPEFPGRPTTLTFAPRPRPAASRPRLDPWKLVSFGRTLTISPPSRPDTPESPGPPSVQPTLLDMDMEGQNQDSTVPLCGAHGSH

Row | Structure (SMILES) | %-inhibition of skMLCK ([1]; kinase skMLCK, 1 μM) | %-inhibition of DDR2 ([2]; kinase DDR2, compound at 1 μM) | %-inhibition of LIMK1 ([3]; kinase LIMK1, compound at 1 μM) | %-inhibition of RSK1 ([4]; kinase RSK1, 1 μM) | %-inhibition of HIPK1 ([5]; kinase HIPK1, compound at 1 μM) | %-inhibition of MLK2 ([6]; kinase MLK2, 1 μM) | %-inhibition of PHKG1 ([7]; kinase PHKG1, 1 μM) | %-inhibition of EPHB4 ([8]; kinase EPHB4, compound at 1 μM) | %-inhibition of PHKG1 ([7]; 1 µM) | %-inhibition of EPHB4 ([8]; 1 µM) | %-inhibition of skMLCK ([1]; 1 µM) | %-inhibition of DDR2 ([2]; 1 µM) | %-inhibition of LIMK1 ([3]; 1 µM) | %-inhibition of RSK1 ([4]; 1 µM) | %-inhibition of HIPK1 ([5]; 1 µM) | %-inhibition of MLK2 ([6]; 1 µM)
1 | CNC(=O)c1cc(Oc2ccc(NC(=O)Nc3ccc(Cl)c(C(F)(F)F)c3)c(F)c2)ccn1 [regorafenib] | 6.59% | 102% | 66% | 0.165% | 47% | 0.795% | 8% | 80% | – | – | – | – | – | – | – | –
2 | CC(=O)Nc1cccc(-n2c(=O)n(C3CC3)c(=O)c3c(Nc4ccc(I)cc4F)n(C)c(=O)c(C)c32)c1 [trametinib] | -3.34% | 0.612% | -1.84% | -10% | -3.71% | 5% | -2.24% | -3.38% | – | – | – | – | – | – | – | –
3 | CO[C@H]1C[C@@H]2CC[C@@H](C)[C@@](O)(O2)C(=O)C(=O)N2CCCC[C@H]2C(=O)O[C@H]([C@H](C)C[C@@H]2CC[C@@H](OC(=O)C(C)(CO)CO)[C@H](OC)C2)CC(=O)[C@H](C)/C=C(\C)[C@@H](O)[C@@H](OC)C(=O)[C@H](C)C[C@H](C)/C=C/C=C/C=C/1C [temsirolimus] | -1.73% | -4% | -5% | -6.45% | -0.101% | 9% | 1.57% | -9% | – | – | – | – | – | – | – | –
4 | COc1cc2nccc(Oc3ccc(NC(=O)C4(C(=O)Nc5ccc(F)cc5)CC4)cc3)c2cc1OC [cabozantinib] | 12% | 99% | 51% | -7.61% | 31% | 6.67% | 53% | 96% | – | – | – | – | – | – | – | –
5 | N#CC[C@H](C1CCCC1)n1cc(-c2ncnc3[nH]ccc23)cn1 [ruxolitinib] | -4.71% | 49% | 60% | 1.49% | 3% | 22% | – | 0.569% | 50% | – | – | – | – | – | – | –
6 | Cc1cn(-c2cc(NC(=O)c3ccc(C)c(Nc4nccc(-c5cccnc5)n4)c3)cc(C(F)(F)F)c2)cn1 [nilotinib] | -14% | 102% | -18% | 22% | 14% | -1.7% | -8% | – | – | 91% | – | – | – | – | – | –
7 | C#Cc1cccc(Nc2ncnc3cc(OCCOC)c(OCCOC)cc23)c1 [erlotinib] | – | – | – | – | – | – | – | – | 5% | 33% | 19% | 43% | 0.0961% | 9% | 12% | -1.75%
